# Assay results as given in US6759568B2, “High estrogen-sensitive medaka fish” (President of Hiroshima University, priority 2000, dated 2004).
# What was measured:
# Format in all cases: in vivo, Oryzias latipes
# [1] = system: fertilized eggs (W) of wild medaka fish; assay: Formation of thrombus by 17β-estradiol in fertilized eggs (W) of wild medaka fish; settings: 25° C., 3 days
# Procedure: Medaka physiological saline solutions (40 mL for each) containing 17 β-estradiol in an amount of 2 ng/L, 20 ng/L, 200 ng/L, 2 μg/L, 1 mg/L, and 4 mg/L were supplied in culture plates, respectively. Three sets were prepared for each concentration. About 30 fertilized eggs (W) of 12-hours after fertilization which were obtained by mutual mating between wild medaka fish, were placed in the first set of culture plates. About 30 fertilized eggs (A) of 12-hours after fertilization which were obtained by crossing the strain A of the transgenic medaka fish with wild medaka fish, were placed in the second set of culture plates. About 30 fertilized eggs (C) of 12-hours after fertilization which were obtained by crossing the strain C of the transgenic medaka fish with wild medaka fish, were placed in the third set of culture plates. After the culture plates were incubated at 25° C. for 3 days, medaka embryos were checked under dissecting microscope with respect to formation of a thrombus. In almost 100% of the fertilized eggs (W), one or more thrombi were formed at the concentration of 4 mg/L of 17β-estradiol, but were not observed at the concentration of less than 4 mg/L. 1%, 3%, 8%, 49%, 55%, and 100% of the fertilized eggs (A) caused the formation of the thrombi at the concentrations of 2 ng/L, 20 ng/L, 200 ng/L, 2 μg/L, 1 mg/L, and 4 mg/L of 17β-estradiol, respectively. […]
# [2] = system: fertilized eggs (A), strain A of the transgenic medaka fish crossed with wild medaka fish; assay: Formation of thrombus by 17β-estradiol in fertilized eggs (A) of strain A transgenic medaka fish; settings: for fertilized eggs that caused the formation of the thrombi: fertilized eggs (A), 25° C., 3 days
# Procedure: (§1) Medaka physiological saline solutions (40 mL for each) containing 17 β-estradiol in an amount of 2 ng/L, 20 ng/L, 200 ng/L, 2 μg/L, 1 mg/L, and 4 mg/L were supplied in culture plates, respectively. Three sets were prepared for each concentration. About 30 fertilized eggs (W) of 12-hours after fertilization which were obtained by mutual mating between wild medaka fish, were placed in the first set of culture plates. About 30 fertilized eggs (A) of 12-hours after fertilization which were obtained by crossing the strain A of the transgenic medaka fish with wild medaka fish, were placed in the second set of culture plates. About 30 fertilized eggs (C) of 12-hours after fertilization which were obtained by crossing the strain C of the transgenic medaka fish with wild medaka fish, were placed in the third set of culture plates. After the culture plates were incubated at 25° C. for 3 days, medaka embryos were checked under dissecting microscope with respect to formation of a thrombus. In almost 100% of the fertilized eggs (W), one or more thrombi were formed at the concentration of 4 mg/L of 17β-estradiol, but were not observed at the concentration of less than 4 mg/L. 1%, 3%, 8%, 49%, 55%, and 100% of the fertilized eggs (A) caused the formation of the thrombi at the concentrations of 2 ng/L, 20 ng/L, 200 ng/L, 2 μg/L, 1 mg/L, and 4 mg/L of 17β-estradiol, respectively. 19%, 41%, 75%, 73%, 60%, and 100% of the fertilized eggs (C) caused the formation of the thrombi at the same concentrations as mentioned above, respectively.
# [3] = system: fertilized eggs (C), strain C of the transgenic medaka fish crossed with wild medaka fish; assay: Formation of thrombus by 17β-estradiol in fertilized eggs (C) of strain C transgenic medaka fish; settings: for fertilized eggs that caused the formation of the thrombi: fertilized eggs (C), 25° C., 3 days
# Procedure: as §1
smiles,measurement,setting,value
C[C@]12CC[C@@H]3c4ccc(O)cc4CC[C@H]3[C@@H]1CC[C@@H]2O [17β-estradiol],fertilized eggs in which one or more thrombi were formed,[1]; 4 mg/L,~100%
same,formation of thrombi,[1]; concentration of less than 4 mg/L,not observed
same,estrogen sensitivity relative to that of the wild medaka fish,[2]; fertilized eggs (A) versus wild medaka fish,thousand times
same,fertilized eggs that caused the formation of the thrombi,[2]; 2 ng/L,1%
same,fertilized eggs that caused the formation of the thrombi,[2]; 20 ng/L,3%
same,fertilized eggs that caused the formation of the thrombi,[2]; 200 ng/L,8%
same,fertilized eggs that caused the formation of the thrombi,[2]; 2 μg/L,49%
same,fertilized eggs that caused the formation of the thrombi,[2]; 1 mg/L,55%
same,fertilized eggs that caused the formation of the thrombi,[2]; 4 mg/L,100%
same,estrogen sensitivity relative to that of the wild medaka fish,[3]; fertilized eggs (C) versus wild medaka fish,hundred thousand times
same,fertilized eggs that caused the formation of the thrombi,[3]; 2 ng/L,19%
same,fertilized eggs that caused the formation of the thrombi,[3]; 20 ng/L,41%
same,fertilized eggs that caused the formation of the thrombi,[3]; 200 ng/L,75%
same,fertilized eggs that caused the formation of the thrombi,[3]; 2 μg/L,73%
same,fertilized eggs that caused the formation of the thrombi,[3]; 1 mg/L,60%
same,fertilized eggs that caused the formation of the thrombi,[3]; 4 mg/L,100%
